Where a SMILES comes first, the peptide text is derived from it.
Experiments:
[1] = test system: breast cancer cell line MCF-7
Procedure: MCF7 cells were seeded at 10,000 cells per well in 150 μl of media (DMEM medium+5% FBS) in a 96 well plate.

[2] = test system: A549 human non-small cell lung cancer cells
Procedure: A549 cells were seeded at 6000 cells per well in 150 μl of media (DMEM medium+5% FBS) in a 96 well plate.

[3] = test system: HT29 colorectal adenocarcinoma cells; experiment: MTT assay, growth of HT29 cells treated with CGEN-CL1; assay type: cell-based
Procedure: (§1) CGEN-CL1 as synthesized in Example 1 was analyzed for its ability to induce growth arrest in various cancer cell lines, such as: breast cancer cell line MCF-7 (Adenocarcinoma, Breast, HTB-22, ATCC), PC3 (Adenocarcinoma, Prostate, CRL-1435, ATCC), A549 (carcinoma, Lung, CCL-185, ATCC), HT-29 (Colorectal Adenocarcinoma, Colon, HTB-38, ATCC) and SK-mel 5 (Melanoma, Skin, HTB70, ATCC).
HT29 cells were seeded at 10,000 cells per well in 150 μl of media (DMEM medium+5% FBS) in a 96 well plate.
(§2) CGEN-CL1 (1 mg dissolved in 2500 of Sodium bi-carbonate to a stock concentration of 4 mg/ml) was added to the wells in 500 of medium (final volume of 2000) as detailed in Table 2. The relative growth was normalized to controls where CGEN-CL1 was not added to wells.
(§3) 20 μl of MTT (3-(4,5-Dimethyl-2-thiazolyl)-2,5-diphenyl-2H-tetrazolium bromide) solution (Sigma Cat#M5655, lot#085k5322, 1 gr was dissolved in 200 ml H2O and filtered, giving a final concentration of 5 mg/ml) was added to each well and incubated for 4 hours at 37° C. after which the medium was vacuumed and 100 μl of DMSO was added to each well. Absorbance was measured in an ELISA reader at 492 nm.

[4] = molecular target: T1, recombinant human clusterin (Homo sapiens, UniProt P10909); experiment: BIAcore SPR, CGEN-CL1 co-incubated with partner helix, binding to clusterin; conditions: CGEN-CL1 and SEQ ID NO:5, 10 μM each, preincubated 30 minutes
T1 construct: purchased Biovendor RD172034100
Procedure: Peptide-protein interaction was analyzed using surface plasmon resonance. Analysis of the interaction between CGEN-CL1 [SEQ ID NO:1] and recombinant human clusterin (Biovendor, Modrice, Czech republic cat no: RD172034100) was conducted using the BIAcore biosensor (Pharmacia Biosensor, Uppsala, Sweden). Clusterin was immobilized directly to a CM5 sensor chip (2000 resonance units (RU)). Solution containing either 10 μM of CGEN-CL1 [SEQ ID NO:1] peptide or a mixture of CGEN-CL1 and its partner helix (SEQ ID NO:5), 10 μM each, preincubated for 30 minutes at room temperature, was injected to the BIAcore. As a background, the solutions were also injected onto an empty flow cell with no immobilized ligand and the binding levels achieved were subtracted. Data was analyzed using BIAevaluation software.

[5] = test system: SK-MEL melanoma cells; experiment: MTT assay, growth of SK-MEL cells treated with CGEN-CL1; assay type: cell-based
Procedure: as §1
SK-MEL 5 cells were seeded at 10,000 cells per well in 150 μl of media (DMEM medium+5% FBS) in a 96 well plate.
as §2, §3

[6] = molecular target: T1, recombinant human clusterin; experiment: BIAcore surface plasmon resonance binding of CGEN-CL1 to clusterin; conditions: SPR, 312-5000 nM CGEN-CL1, immobilized clusterin
Source text: The capability of CGEN-CL1 to specifically bind to recombinant Clusterin protein was investigated using the BIACORE technology, measuring protein-protein interaction and binding affinity. The technology is based on surface plasmon resonance (SPR), an optical phenomenon that enables detection of unlabeled interactants in real time. The SPR-based biosensors can be used in determination of active concentration, screening and characterization in terms of both affinity and kinetics.
Peptide-protein interaction was analyzed using surface plasmon resonance. Analysis of the interaction between CGEN-CL1 [SEQ ID NO:1] and recombinant human clusterin (Biovendor, Modrice, Czech republic cat no: RD172034100) was conducted using the BIAcore biosensor (Pharmacia Biosensor, Uppsala, Sweden). Clusterin was immobilized directly to a CM5 sensor chip (2000 resonance units (RU)). Solution containing five different concentrations of CGEN-CL1 [SEQ ID NO:1] (312, 625, 1250, 2500 and 5000 nM) was injected into the sample chamber of the BIACORE device and the interaction was monitored for 5 minutes using surface plasmon resonance.
As a background, the solutions were also injected onto an empty flow cell with no immobilized ligand and the binding levels achieved were subtracted. Data were analyzed using BIAevaluation software.

[7] = test system: prostate adenocarcinoma cell line PC3; experiment: MTT assay, CGEN-CL1 and/or paclitaxel on PC3 cells; assay type: cell-based
Procedure: as §3
(§4) A549, PC3 and MCF7 cells were seeded at 6000, 8000 and 10,000 cells per well respectively in 150 μl of media (DMEM medium+5% FBS) in 96 well plates.
(§5) Paclitaxel (Sigma T7402, Lot. 036k1217, Mw 853.9, 5 mg dissolved in 585 μl DMSO to a stock concentration of 10 mM, stored at −20° C.) and/or CGEN-CL1 (1 mg dissolved in 250 μl of sodium bi-carbonate to a stock concentration of 4 mg/ml) were added to the wells in 25 μl of medium (final volume of 200 μl) as detailed in Table 3. The relative growth was normalized to controls where neither paclitaxel nor CGEN-CL1 was added to wells.
(§6) An MTT assay was performed as described above in Example 2.

[8] = test system: cleaved PARP in PC3 cells; experiment: Detection of cleaved PARP by Western blot in PC3 cells; assay type: cell-based
Procedure: Apoptosis was analyzed either by cell cycle analysis or by PARP cleavage estimation. The amount of cleaved PARP is proportional to the amount of cells undergoing apoptosis (see for example Boulares A. H., et al., 1999, JBC 274:22932-22940).
FIG. 3 presents results of detection of cleaved PARP in PC3 cells treated with CGEN-CL1 combined with or without Paclitaxel. PC3 cells were treated with CGEN-CL1 (SEQ ID NO:1), alone or in combination with Paclitaxel, for 48, 72 and 96 hours. Cleaved PARP was detected in cell lysates by Western blot analysis. […] Elevation of the amount of cleaved PARP indicates an increase in apoptotic cells.

[9] = test system: lung carcinoma cell line A549; experiment: MTT assay, CGEN-CL1 and/or paclitaxel on A549 cells; assay type: cell-based, human
Procedure: as §3, §4, §5, §6

[10] = test system: PC3 cells; conditions: MTT
Procedure: PC3 cells were seeded at 8000 cells per well in 150 μl of media (DMEM medium+5% FBS) in a 96 well plate.

T1 sequence (P10909 23-449): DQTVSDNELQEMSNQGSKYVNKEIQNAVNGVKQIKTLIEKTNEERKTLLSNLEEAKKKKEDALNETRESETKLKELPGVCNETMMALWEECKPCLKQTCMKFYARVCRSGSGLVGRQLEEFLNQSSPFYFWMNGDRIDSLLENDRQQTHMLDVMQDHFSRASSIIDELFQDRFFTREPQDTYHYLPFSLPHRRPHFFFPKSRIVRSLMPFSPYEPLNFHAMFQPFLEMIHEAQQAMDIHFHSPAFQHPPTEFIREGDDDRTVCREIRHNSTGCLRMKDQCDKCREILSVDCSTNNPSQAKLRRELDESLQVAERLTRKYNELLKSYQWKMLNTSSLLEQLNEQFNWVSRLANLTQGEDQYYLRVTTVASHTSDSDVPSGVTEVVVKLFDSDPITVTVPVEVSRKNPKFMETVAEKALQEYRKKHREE

EC50 [1]: 56 nM | EC50 [2]: 0.95 nM | binding of CGEN-CL1 to recombinant Clusterin after co-incubation with partner helix [4]: completely abolished the binding
SMILES: CC[C@H](C)[C@H](NC(=O)[C@H](CCCNC(=N)N)NC(=O)[C@H](CC(=O)O)NC(=O)CNC(=O)[C@H](CC(N)=O)NC(=O)[C@H](CCSC)NC(=O)[C@H](Cc1c[nH]c2ccccc12)NC(=O)[C@H](Cc1ccccc1)NC(=O)[C@H](Cc1ccc(O)cc1)NC(=O)[C@H](Cc1ccccc1)NC(C)=O)C(=O)N[C@@H](CC(=O)O)C(=O)N[C@@H](CO)C(=O)N[C@@H](CC(C)C)C(=O)N[C@@H](CC(C)C)C(=O)N[C@@H](CCC(=O)O)C(=O)N[C@@H](CC(N)=O)C(=O)N[C@@H](CC(=O)O)C(=O)N[C@@H](CCCNC(=N)N)C(=O)N[C@@H](CCC(N)=O)C(=O)N[C@@H](CCC(N)=O)C(=O)N[C@H](C(N)=O)[C@@H](C)O [CGEN-CL1] (Ac-FYFWMNGDRIDSLLENDRQQT-NH2)
concentration achieving maximal growth inhibition ([1]; MCF-7 breast cancer cells, MTT): approximately 900 nM | concentration with a growth inhibiting effect (as little as) ([1]; MCF-7 breast cancer cells, MTT): 50 nM | growth inhibition as revealed by cellular viability [3]: evoked growth inhibition | growth inhibition as revealed by cellular viability [5]: evoked growth inhibition | binding to parent protein clusterin [6]: binds to its parent protein clusterin in a dose dependent manner | CGEN-CL1 concentration that sensitized cells to paclitaxel at sub-minimal doses (as little as) [7]: 7 nM | growth inhibition ([7]; 60 nM CGEN-CL1 combined with 5 nM paclitaxel): same growth inhibition rates as the growth inhibition achieved by 45 nM of paclitaxel alone | growth inhibition relative to 45 nM of paclitaxel alone ([7]; 60 nM CGEN-CL1 combined with 45 nM paclitaxel): 1.5 fold | effect between CGEN-CL1 and paclitaxel ([7]; CGEN-CL1 at different concentrations with different doses of paclitaxel): synergistic effect | amount of cleaved PARP ([8]; PC3 cells treated with Paclitaxel plus CGEN-CL1, 48 hours): dramatically enhanced the amount of cleaved PARP | amount of cleaved PARP ([8]; PC3 cells, CGEN-CL1 alone, 48 hours): caused an enhancement in the amount of cleaved PARP | amount of cleaved PARP ([8]; PC3 cells, CGEN-CL1 alone, 72 hours, administration at time zero and after 48 hours): significant increase in cleaved PARP | CGEN-CL1 concentration that sensitizes cells to sub-minimal concentrations of paclitaxel (as little as) [9]: 1 nM | maximal effect (inhibition) in combination with paclitaxel ([9]; CGEN-CL1 + paclitaxel): 73% | maximal effect (inhibition) alone ([9]; single agent): 48% | concentration evoking the maximal effect (as little as) [10]: 15 nM

From patent publication US8575107B2, “Clusterin derived peptide” (Compugen Ltd., priority 2008, dated 2013)
